The values below are quoted from earlier work in patent publication US20210319872A1, “DRUG AND DEVICE COMBINATION PRODUCTS WITH IMPROVED SAFETY AND EFFICACY PROFILES” (priority 2016, published 2021).

Like-named read-outs stand apart in the source and are kept apart here.

For the series the following is noted: in vivo.

For `CNCC[C@@H](Oc1ccccc1C)c1ccccc1` [Atomoxetine (Strattera)], the Constipation is 18%), Constipation (adult, 8%; pediatric, 1% to 2%), Decrease in; the Decrease in appetite entry is reported as “appetite (adult, 16%; pediatric, 16%), Nausea (adult, 26%;”; the “Delay when starting to pass urine” value is given as “Renal: Delay when starting to pass urine (adult, 6%)”; the Dysmenorrhea entry is on record as “Reproductive: Dysmenorrhea (adult, 3%), Erectile dysfunction”. Besides, the Erectile dysfunction result is recorded as “(adult, 8%)”; the Headache result was “Neurologic: Headache (pediatric, 19%), Insomnia (adult, 15%;”; the “Increased systolic arterial pressure” value is “pressure (adult, 4.2% to 12.4%; pediatric, 4.9% to 12.5%),”; the Menopausal flushing result is given as “Other: Menopausal flushing (adult, 3%)”. Further, the Priapism result was “Reproductive: Priapism (rare)”; the Seizure was 0.1%; pediatric, 0.2%); the “Serious side effect, Cardiovascular” value is reported as “Cardiovascular: Myocardial infarction, Sudden cardiac death”; the “Serious side effect, Hepatic” value is “Hepatic: Injury of liver (Severe), Liver failure”. In addition, the “Serious side effect, Neurologic” value is “Neurologic: Cerebrovascular accident, Dyskinesia, Seizure (adult,”; the “Serious side effect, Psychiatric” value is reported as “Psychiatric: Mania, Psychotic disorder, Suicidal thoughts”; the Somnolence entry is recorded as “pediatric, at least 2%), Somnolence (adult, 8%; pediatric, 11%)”; the Suicidal thoughts result is “(pediatric, 0.4%)”. The Tachycardia entry is “Tachycardia (adult, 1.5% to 22.4%; pediatric, 0.3% to 23.4%)”; the Vomiting result is “pediatric, 7% to 13%), Vomiting (adult, 4%; pediatric, 11%),”; the Weight decreased result is “Endocrine metabolic: Weight decreased (adults, 2%; pediatric, 3%”; the Xerostomia result is reported as “Xerostomia (adult, 20%)”.
Consider `Cc1nc2n(c(=O)c1CCN1CCC(c3noc4cc(F)ccc34)CC1)CCCC2` [Risperidone (Risperdal)], for which the Akathisia result was “Neurologic: Akathisia (oral, up to 10%; IM, 4% to 11%), Dizziness”; the Anxiety result was “Psychiatric: Anxiety (oral, up to 16% IM, less than 4%)”; the Constipation entry was “Gastrointestinal: Constipation (oral, 8% to 21%; IM, 5% to 7%),”; the Diarrhea result is on record as “Diarrhea (oral, 1% to 8%; IM, less than 4%), Excessive salivation”. Besides, the Dystonia was < 5%; pediatric, 2% to 6%; IM, adult, less than 4%), Parkinsonism; the Excessive salivation result is listed as “(oral, 1% to 10%; IM, 1% to 4%), Increased appetite (oral, adult,”; the Fatigue is listed as 3% to 9%), Pain, General (IM, 1% to 4%); the Hyperprolactinemia was < 1%; pediatrics, 49% to 87%; IM, less than 4%), Weight increased. Moreover, the Increased appetite result is listed as “more than 5%; pediatric, 4% to 47%; IM, 4%), Indigestion (oral,”; the Indigestion is recorded as 2% to 10%; IM, 6%), Nausea (oral, 4% to 16%; IM, 3% to 4%),; the Nausea is 2% to 10%; IM, 6%), Nausea (oral, 4% to 16%; IM, 3% to 4%),; the “Pain, General” value was 3% to 9%), Pain, General (IM, 1% to 4%). The Parkinsonism result is “(oral, 6% to 28%; IM, 8% to 15%), Sedated (oral, adult, 3% to 6%;”; the Rash result is “IM, less than 4%)”; the Syncope entry is on record as “Syncope (oral, up to 1%; IM, up to 2%)”; the Tardive dyskinesia result is listed as “less than 5%; IM, less than 4%)”. Besides, the Tremor result is “pediatric, 8% to 29%), Tremor (oral, 2% to 12%; IM, 3% to 24%)”; the Upper respiratory infection result is “respiratory infection (oral, 2% to 8%; IM, 2% and 6%)”; the Vomiting is recorded as < 16%), Vomiting (oral, 10% to 25%; IM, less than 4%), Xerostomia; the Weight increased result is “(oral, adult, 8.7% to 20.9%; pediatric, 14% to 32.6%; IM, adult, 8%”. Also, the Xerostomia result is listed as “(oral, 4% to 15%; IM, up to 7%)”. Also, under “po”, the Akathisia result is recorded as “Neurologic: Akathisia (oral, up to 10%; IM, 4% to 11%), Dizziness”; the Anxiety entry is recorded as “Psychiatric: Anxiety (oral, up to 16% IM, less than 4%)”; the Cerebrovascular accident result is on record as “Neurologic: Cerebrovascular accident (oral, less than 5%; IM, less”; the Constipation entry is listed as “Gastrointestinal: Constipation (oral, 8% to 21%; IM, 5% to 7%),”. Also, for the setting “po”, the Diarrhea entry is listed as “Diarrhea (oral, 1% to 8%; IM, less than 4%), Excessive salivation”; the Excessive salivation entry was “(oral, 1% to 10%; IM, 1% to 4%), Increased appetite (oral, adult,”; the Fatigue result is “Other: Fatigue (oral, adult, 1% to 3%; pediatric, 18% to 42%; IM,”; the Hyperprolactinemia is < 1%; pediatrics, 49% to 87%; IM, less than 4%), Weight increased. Under “po”, the Increased appetite entry is given as “more than 5%; pediatric, 4% to 47%; IM, 4%), Indigestion (oral,”; the Indigestion is listed as 2% to 10%; IM, 6%), Nausea (oral, 4% to 16%; IM, 3% to 4%),; the Nasal congestion is given as 4%), Nasal congestion (oral, adult, 4% to 6%; pediatric, 13%),; the Nausea was 2% to 10%; IM, 6%), Nausea (oral, 4% to 16%; IM, 3% to 4%),. Where the note is “po”, the Pain in throat result is “throat (oral, adult, more than 5%; pediatric, 3% to 10%), Upper”; the Parkinsonism entry is “(oral, 6% to 28%; IM, 8% to 15%), Sedated (oral, adult, 3% to 6%;”; the Rash result is reported as “Dermatologic: Rash (oral, adults, 1% to 4%; pediatrics, up to 11%;”; the Syncope result is “Syncope (oral, up to 1%; IM, up to 2%)”. For the same compound, under “po”, the Tardive dyskinesia entry is given as “less than 5%; IM, less than 4%)”; the Tremor result is “pediatric, 8% to 29%), Tremor (oral, 2% to 12%; IM, 3% to 24%)”; the Upper respiratory infection entry was “respiratory infection (oral, 2% to 8%; IM, 2% and 6%)”; the Vomiting is listed as 16%), Vomiting (oral, 10% to 25%; IM, less than 4%), Xerostomia. For the same compound, for the setting “po”, the Weight increased result is on record as “(oral, adult, 8.7% to 20.9%; pediatric, 14% to 32.6%; IM, adult, 8%” and the Xerostomia entry was “(oral, 4% to 15%; IM, up to 7%)”.
With `C=CCC1(C(C)CCC)C(=O)NC(=O)NC1=O` (centres unmarked) [Seconal (secobarbital)], the “Complex mannerisms - behavior” value is “Psychiatric: Complex mannerisms - behavior (Less than 1%.)”; the Liver damage entry is “Hepatic: Liver damage (less than 1%)”; the “Megaloblastic anemia, With prolonged use” value is listed as less than 1%); the “Serious side effect, Other” value is reported as “Other: Drug dependence, Withdrawal sign or symptom”. In addition, the Somnolence entry was “Neurologic: Somnolence (1% to 3%)”.
In the case of `CCCC(CCC)C(=O)O.CCCC(CCC)C(=O)[O-].[Na+]` [Divalproex (Depakote)], the Asthenia entry is “Neurologic: Asthenia (6% to 27%), Dizziness (up to 25%), Feeling”; the Backache was 1% to less than 5%; migraine, 8%); the “Common side effects, listed without incidence” value was “Ophthalmic: Amblyopia, Blurred vision, Diplopia (16%)”; the Diplopia result was “Ophthalmic: Amblyopia, Blurred vision, Diplopia (16%)”. Moreover, the Dizziness entry is reported as “Neurologic: Asthenia (6% to 27%), Dizziness (up to 25%), Feeling”; the Feeling nervous result is given as “nervous (up to 11%), Headache (31%), Insomnia (up to 15%),”; the Headache result is on record as “nervous (up to 11%), Headache (31%), Insomnia (up to 15%),”; the Indigestion is listed as 23%), Indigestion (8% to 11%), Loss of appetite (4% to 12%),. Also, the Infectious disease result is “Other: Infectious disease (12% to 20%), Influenza (12%)”; the Influenza result is listed as “Other: Infectious disease (12% to 20%), Influenza (12%)”; the Insomnia entry was “nervous (up to 11%), Headache (31%), Insomnia (up to 15%),”; the Nausea result is “Nausea (26% to 48%), Vomiting (15% to 27%)”. The Ototoxicity - deafness entry is on record as “Otic: Ototoxicity - deafness (greater than 1% to less than 5%)”; the Palpitations entry was “Cardiovascular: Palpitations (greater than 1% to less than 5%),”; the Pancreatitis result is recorded as “Gastrointestinal: Pancreatitis (greater than 1% to less than 5%)”; the Somnolence result is listed as “Somnolence (Adult, 7% to 30%; pediatric, greater than 5%),”. The Tachycardia entry was “Tachycardia (greater than 1% to less than 5%)”; the “Thrombocytopenia, Dose-related” value is listed as “Dose-related (1% to 27%)”; the Tremor result was “Tremor (1% to 57%)”; the Vomiting entry is “Nausea (26% to 48%), Vomiting (15% to 27%)”.
In the case of `CCOC(=O)C1=C(C)NC(C)=C(C(=O)OC)C1c1cccc(Cl)c1Cl` (centres unmarked) [Felodipine (Plendil)], the Flushing result is “Dermatologic: Flushing (3.9% to 6.9%)”; the Headache result is given as “Neurologic: Headache (10.6% to 14.7%)”; the Hypotension result is reported as “Cardiovascular: Angina, Hypotension (less than 0.5%), Myocardial”; the Indigestion result is on record as “Gastrointestinal: Indigestion (0.5% to 3.9%)”. For the same compound, the Peripheral edema result is “Cardiovascular: Peripheral edema (2% to 17.4%)” and the Upper respiratory infection result is reported as “Respiratory: Upper respiratory infection (0.7% to 3.9%)”.
With `CCCN[C@H]1CCc2nc(N)sc2C1` [Pramipexole (Mirapex)], the Amnesia entry was “Neurologic: Amnesia (4% to 6%), Asthenia (Immediate-release,”; the Asthenia was 10% to 14%; extended-release, 3%), Confusion (4% to 10%),; the Confusion is listed as 10% to 14%; extended-release, 3%), Confusion (4% to 10%),; the Dizziness entry is given as “Dizziness (Immediate-release, 3% to 26%; extended-release, 2% to”. Further, the Dream disorder was ≤ 12%), Dream disorder (Up to 11%), Dyskinesia (Immediate-; the Dyskinesia entry is “release, 18% to 47%; extended-release, 17%), Extrapyramidal”; the Extrapyramidal movements entry is listed as “movements (28%), Headache (Immediate-release, 4% to 16%;”; the Hallucinations result was “Psychiatric: Hallucinations (5% to 17%)”. Moreover, the Sleep attack entry is “Neurologic: Sleep attack (2% to 6%), Somnolence (Immediate-” and the Somnolence entry was “release, 6% to 33%; extended-release, 15% to 36%)”.
